Experimental data as given in patent publication US20130158072A1, “KAPPA OPIOID RECEPTOR BINDING LIGANDS” (Research Triangle Institute, priority 2010, published 2013).
“Also recorded” adds a separate entry of the source. Counter-ions that a name gives are not always drawn. Marks after values point to notes of the source that are not given here.

What was measured:
rodents = settings: forced-swim, elevated plus maze, fear-potentiated startle; cited from earlier work
[1] = biological target: T1, cloned human μ-opioid receptor (Homo sapiens, UniProt P35372); assay: Inhibition of DAMGO-stimulated [35S]GTPγS binding; type: biochemical; settings: for μ, DAMGO Ke (nM): antagonism of DAMGO-stimulated [35S]GTPγS binding, CHO cells, means ± SE, at least three experiments
T1 construct: expressed in transfected cells; host or cells: CHO cells
Description: (§1) Test compound assay concentrations ranged from 1-5000 nM, depending on their activity. The Ke values were calculated using the formula: Ke=[L]/DR−1, where [L] is the concentration of test compound and DR is the ratio of agonist EC50 value in the presence or absence of test compound, respectively.

[2] = biological target: T2, cloned human δ-opioid receptor (Homo sapiens, UniProt P41143); assay: Inhibition of DPDPE-stimulated [35S]GTPγS binding; type: biochemical; settings: antagonism of DPDPE-stimulated [35S]GTPγS binding, CHO cells; means ± SE, at least three experiments
T2 construct: expressed in transfected cells; host or cells: CHO cells
Description: as §1

[3] = biological target: T3, cloned human κ-opioid receptor (Homo sapiens, UniProt P41145); assay: Inhibition of U69,593-stimulated [35S]GTPγS binding; settings: for κ, U69,593 Ke / κ, U69,593 Ke (nM): antagonism of U69,593-stimulated [35S]GTPγS binding, CHO cells, means ± SE, at least three experiments; for δ/κ: κ selectivity relative to δ
Description: as §1

[4] = biological target: T3, cloned human κ-opioid receptor; design: expressed in transfected cells; host or cells: CHO cells; settings: previously reported; cited from earlier work

T3 sequence (P41145 whole entry): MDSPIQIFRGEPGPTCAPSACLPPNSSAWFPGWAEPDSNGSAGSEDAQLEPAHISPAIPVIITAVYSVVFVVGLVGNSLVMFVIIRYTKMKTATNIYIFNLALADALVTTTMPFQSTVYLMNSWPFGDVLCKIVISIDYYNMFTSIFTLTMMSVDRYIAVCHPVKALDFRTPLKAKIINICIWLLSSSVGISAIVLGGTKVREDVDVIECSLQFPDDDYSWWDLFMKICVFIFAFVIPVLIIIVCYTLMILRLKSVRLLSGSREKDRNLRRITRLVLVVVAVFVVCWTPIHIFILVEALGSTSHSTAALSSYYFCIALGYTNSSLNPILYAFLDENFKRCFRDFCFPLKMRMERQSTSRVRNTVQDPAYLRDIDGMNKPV
T1 sequence (P35372 whole entry): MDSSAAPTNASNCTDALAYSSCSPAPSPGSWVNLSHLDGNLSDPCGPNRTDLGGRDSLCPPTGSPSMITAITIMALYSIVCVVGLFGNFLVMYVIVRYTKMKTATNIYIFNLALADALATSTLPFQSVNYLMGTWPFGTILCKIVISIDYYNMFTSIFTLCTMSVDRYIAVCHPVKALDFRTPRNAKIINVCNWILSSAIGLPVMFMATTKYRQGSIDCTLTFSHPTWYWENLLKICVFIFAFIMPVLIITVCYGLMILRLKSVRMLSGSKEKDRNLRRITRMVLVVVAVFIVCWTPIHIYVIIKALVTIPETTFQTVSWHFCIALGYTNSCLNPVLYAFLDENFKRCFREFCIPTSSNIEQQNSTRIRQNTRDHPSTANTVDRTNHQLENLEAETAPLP
T2 sequence (P41143 whole entry): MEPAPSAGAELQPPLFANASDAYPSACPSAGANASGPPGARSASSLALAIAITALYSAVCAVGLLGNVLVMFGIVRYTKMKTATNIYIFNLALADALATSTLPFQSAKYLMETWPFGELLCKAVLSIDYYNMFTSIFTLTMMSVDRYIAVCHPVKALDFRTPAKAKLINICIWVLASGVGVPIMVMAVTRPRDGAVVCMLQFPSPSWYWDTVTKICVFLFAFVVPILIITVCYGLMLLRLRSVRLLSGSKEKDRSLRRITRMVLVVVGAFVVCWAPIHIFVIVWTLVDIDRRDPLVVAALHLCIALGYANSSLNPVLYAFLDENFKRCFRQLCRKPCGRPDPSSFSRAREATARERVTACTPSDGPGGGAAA

COc1cccc([C@]2(C)CCN(C[C@@H](NC(=O)[C@H]3Cc4ccc(O)cc4CN3)C(C)C)C[C@@H]2C)c1 (as salt: hydrochloride) [Compound 8d, (3R)-7-Hydroxy-N-[(1S)-1-{[(3R,4R)-4-(3-methoxyphenyl)-3,4-dimethylpiperidin-1-yl]methyl}-2-methylpropyl]-1,2,3,4-tetrahydroisoquinoline-3-carboxamide]
melting point: > 220 °C (dec.)

CC[C@H](C)[C@@H](CN1CC[C@@](C)(c2cccc(OC)c2)[C@@H](C)C1)NC(=O)[C@H]1Cc2ccc(O)cc2CN1 (as salt: hydrochloride) [Compound 8f, (3R)-7-Hydroxy-N-[(1S,2S)-1-{[(3R,4R)-4-(3-methoxyphenyl)-3,4-dimethylpiperidin-1-yl]methyl}-2-methylbutanyl]-1,2,3,4-tetrahydroisoquinoline-3-carboxamide]
melting point: > 220 °C (dec.)

COc1cccc([C@]2(C)CCN(C[C@@H](NC(=O)[C@@]3(C)Cc4ccc(O)cc4CN3)C(C)C)C[C@@H]2C)c1 (as salt: hydrochloride) [Compound 8h, (3R)-7-Hydroxy-N-[(1S)-1-{[(3R,4R)-4-(3-methoxyphenyl)-3,4-dimethylpiperidin-1-yl]methyl}-2-methylpropyl]-3-methyl-1,2,3,4-tetrahydroisoquinoline-3-carboxamide]
melting point: > 220 °C (dec.)

CC[C@H](C)[C@@H](CN1CC[C@@](C)(c2cccc(O)c2)[C@@H](C)C1)NC(=O)[C@@]1(C)Cc2ccc(O)cc2CN1 (as salt: hydrochloride) [Compound 8i, (3R)-7-Hydroxy-N-[(1S,2S)-1-{[(3R,4R)-4-(3-hydroxyphenyl)-3,4-dimethylpiperidin-1-yl]methyl}-2-methylbutanyl]-3-methyl-1,2,3,4-tetrahydroisoquinoline-3-carboxamide]
melting point: > 220 °C (dec.)

CC[C@H](C)[C@@H](CN1CC[C@@](C)(c2cccc(O)c2)[C@@H](C)C1)NC(=O)[C@H]1Cc2ccc(O)cc2CN1C (as salt: hydrochloride) [Compound 8j, (3R)-7-Hydroxy-N-[(1S,2S)-1-{[(3R,4R)-4-(3-hydroxyphenyl)-3,4-dimethylpiperidin-1-yl]methyl}-2-methylbutanyl]-2-methyl-1,2,3,4-tetrahydroisoquinoline-3-carboxamide]
melting point: 180 °C (dec.)

COc1cccc([C@]2(C)CCN(C[C@@H](NC(=O)[C@H]3Cc4ccc(O)cc4CN3C)C(C)C)C[C@@H]2C)c1 (as salt: hydrochloride) [Compound 8k, (3R)-7-Hydroxy-N-[(1S)-1-{[(3R,4R)-4-(3-methoxyphenyl)-3,4-dimethylpiperidin-1-yl]methyl}-2-methylpropyl]-2-methyl-1,2,3,4-tetrahydroisoquinoline-3-carboxamide]
melting point: 210 to 215 °C (dec.)

COc1cccc([C@]2(C)CCN(C[C@@H](NC(=O)[C@@]3(C)Cc4ccc(OC)cc4CN3)C(C)C)C[C@@H]2C)c1 (as salt: hydrochloride) [Compound 8l, (3R)-7-Methoxy-N-[(1S)-1-{[(3R,4R)-4-(3-methoxyphenyl)-3,4-dimethylpiperidin-1-yl]methyl}-2-methylpropyl]-3-methyl-1,2,3,4-tetrahydroisoquinoline-3-carboxamide]
melting point: > 220 °C (dec.)

CC[C@H](C)[C@@H](CN1CC[C@@](C)(c2cccc(OC)c2)[C@@H](C)C1)NC(=O)[C@@]1(C)Cc2ccc(O)cc2CN1 (as salt: hydrochloride) [Compound 8n, (3R)-7-Hydroxy-N-[(1S,2S)-1-{[(3R,4R)-4-(3-methoxyphenyl)-3,4-dimethylpiperidin-1-yl]methyl}-2-methylbutanyl)-3-methyl-1,2,3,4-tetrahydroisoquinoline-3-carboxamide]
melting point: 210 °C (dec.)

COc1ccc2c(c1)CN(C)[C@@](C)(C(=O)N[C@H](CN1CC[C@@](C)(c3cccc(O)c3)[C@@H](C)C1)C(C)C)C2 (as salt: hydrochloride) [Compound 8o, (3R)-7-Methoxy-N-[(1S)-1-{[(3R,4R)-4-(3-hydroxyphenyl)-3,4-dimethylpiperidin-1-yl]methyl}-2-methylpropyl]-2,3-dimethyl-1,2,3,4-tetrahydroisoquinoline-3-carboxamide]
melting point: 199 °C (dec.)

CC[C@H](C)[C@@H](CN1CC[C@@](C)(c2cccc(OC)c2)[C@@H](C)C1)NC(=O)[C@H]1Cc2ccc(O)cc2CN1C (as salt: hydrochloride) [Compound 8p, (3R)-7-Hydroxy-N-[(1S,2S)-1-{[(3R,4R)-4-(3-methoxyphenyl)-3,4-dimethylpiperidin-1-yl]methyl}-2-methylbutanyl]-2-methyl-1,2,3,4-tetrahydroisoquinoline-3-carboxamide]
melting point: 180 °C (dec.)

Oc1ccc2c3c1O[C@H]1c4[nH]c5c(c4C[C@@]4(O)[C@@H](C2)N(CC2CC2)CC[C@]314)C[C@@]1(O)[C@H]2Cc3ccc(O)c4c3[C@@]1(CCN2CC1CC1)[C@H]5O4 [Compound 1, nor-BNI]
fear and stress-induced responses (rodents): dose-dependently reduce fear and stress-induced responses

CCC(C)C(CN1CCC(C)(c2cccc(O)c2)C(C)C1)NC(=O)C1Cc2ccc(O)cc2CN1 (stereo not shown) [Compound 8a]
μ, DAMGO Ke (nM) [1]: 3 ± 1^c nM
potency at μ receptors compared to 3 ([1]; compared with 3): increased potency; also recorded: eight-fold increase in potency
δ, DPDPE Ke (nM) [2]: 24 ± 4^c nM
κ, U69,593 Ke [3]: 0.03 nM
κ, U69,593 Ke (nM) [3]: 0.03 ± 0.02^c nM
δ/κ ([3]; ratio of Ke values): 800
Ke value at the κ-opioid receptor [4]: 0.03 nM
κ selectivity relative to the δ opioid receptor [4]: 800 fold
κ selectivity relative to the μ opioid receptor [4]: 100 fold

COc1ccc2c(c1)CNC(C(=O)NC(CN1CCC(C)(c3cccc(O)c3)C(C)C1)C(C)C)C2 (stereo not shown) [Compound 8b]
μ, DAMGO Ke (nM) [1]: 51.4 ± 15^c nM
δ, DPDPE Ke (nM) [2]: 118 ± 45^c nM
κ, U69,593 Ke [3]: 0.06 nM
κ, U69,593 Ke (nM) [3]: 0.06 ± 0.01^c nM
decrease in potency at the κ receptor relative to 3 ([3]; compared with 3): 3 fold
δ/κ ([3]; ratio of Ke values): 1970
μ/κ ([3]; ratio of Ke values, κ selectivity relative to μ): 857
Ke value at the κ-opioid receptor [4]: 0.06 nM
fold less potent than 3 at the κ-opioid receptor [4]: 3 fold
κ selectivity relative to the δ opioid receptor [4]: 1970 fold
κ selectivity relative to the μ opioid receptor [4]: 857 fold
